Patent publication US10981911B2, “Imidazopyrrolopyridine as inhibitors of the JAK family of kinases” (Janssen Pharmaceutica NV, priority 2016, dated 2021)

Legend:
Type in all cases: biochemical
JAK2-JH1JH2 = JAK2-JH1JH2 (Homo sapiens (Human), UniProt O60674); experiment: Enzymatic inhibition assay (RapidFire HTMS), JAK2; conditions: 30 μM ATP, 40 μM substrate
In short: (§1)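 Quenched with 0.5% TFA plus internal-standard peptide; phosphorylated product quantified by RapidFire C4 SPE–ESI-MS, 11-point 1:3 or 1:4 dilutions in duplicate.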

JAK3-JH1JH2 = JAK3-JH1JH2 (Homo sapiens (Human), UniProt P52333); experiment: Enzymatic inhibition assay (RapidFire HTMS), JAK3; conditions: 150 μM ATP, 40 μM substrate
Sequence of JAK3-JH1JH2 (P52333 512-1124): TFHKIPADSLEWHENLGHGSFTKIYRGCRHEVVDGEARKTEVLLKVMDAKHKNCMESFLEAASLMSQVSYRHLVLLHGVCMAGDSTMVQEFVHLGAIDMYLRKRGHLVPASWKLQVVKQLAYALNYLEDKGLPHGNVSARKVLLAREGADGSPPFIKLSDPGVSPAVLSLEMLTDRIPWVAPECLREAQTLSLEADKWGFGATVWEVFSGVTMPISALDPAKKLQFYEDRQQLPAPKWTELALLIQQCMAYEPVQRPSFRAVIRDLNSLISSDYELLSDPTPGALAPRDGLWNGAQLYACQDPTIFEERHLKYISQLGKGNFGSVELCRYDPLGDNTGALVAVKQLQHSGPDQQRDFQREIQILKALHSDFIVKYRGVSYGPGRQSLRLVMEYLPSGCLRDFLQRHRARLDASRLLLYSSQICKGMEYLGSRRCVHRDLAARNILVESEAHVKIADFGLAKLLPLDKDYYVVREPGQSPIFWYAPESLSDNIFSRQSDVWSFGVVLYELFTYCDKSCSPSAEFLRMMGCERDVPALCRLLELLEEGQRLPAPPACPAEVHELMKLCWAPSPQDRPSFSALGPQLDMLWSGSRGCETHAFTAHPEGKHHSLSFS
In short: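 JAK3 JH1JH2 reaction incubated 45 min at 25 °C, then quenched with 0.5% TFA containing 0.15 μM internal standard peptide. Phosphopeptide product measured by RapidFire C4 SPE–ESI MS (positive mode); inhibition from product decrease versus uninhibited enzyme, 11-point 1:3 or 1:4 dilutions in duplicate.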

JAK1-JH1JH2 = JAK1-JH1JH2 (Homo sapiens (Human), UniProt P23458); experiment: Enzymatic inhibition assay (RapidFire HTMS), JAK1; conditions: 12.5 μM ATP, 200 μM substrate; read-out: JAK1-JH2JH1 IC50
Sequence of JAK1-JH1JH2 (P23458 574-1154): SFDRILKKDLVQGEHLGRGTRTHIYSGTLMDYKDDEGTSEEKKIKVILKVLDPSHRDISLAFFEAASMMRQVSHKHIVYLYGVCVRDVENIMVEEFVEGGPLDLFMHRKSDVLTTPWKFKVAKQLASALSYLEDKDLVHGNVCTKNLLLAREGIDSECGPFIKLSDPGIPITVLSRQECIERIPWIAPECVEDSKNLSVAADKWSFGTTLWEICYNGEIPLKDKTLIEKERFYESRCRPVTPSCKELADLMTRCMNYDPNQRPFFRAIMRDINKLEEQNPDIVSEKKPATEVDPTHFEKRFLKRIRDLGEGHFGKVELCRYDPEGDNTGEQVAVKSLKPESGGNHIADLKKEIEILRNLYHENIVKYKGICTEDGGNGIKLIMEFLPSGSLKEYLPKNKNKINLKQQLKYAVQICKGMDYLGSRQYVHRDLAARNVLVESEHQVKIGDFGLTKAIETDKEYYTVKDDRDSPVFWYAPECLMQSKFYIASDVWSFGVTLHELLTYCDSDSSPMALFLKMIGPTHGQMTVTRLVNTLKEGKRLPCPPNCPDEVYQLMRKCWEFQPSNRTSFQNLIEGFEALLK
In short: as §1

Tyk2-JH1JH2 = Tyk2-JH1JH2 (Homo sapiens (Human), UniProt P29597, C1142A/C936A); experiment: Enzymatic inhibition assay (RapidFire HTMS), Tyk2; conditions: 50 μM ATP, 200 μM substrate
Sequence of Tyk2-JH1JH2 (P29597 580-1182 C936A/C1142A): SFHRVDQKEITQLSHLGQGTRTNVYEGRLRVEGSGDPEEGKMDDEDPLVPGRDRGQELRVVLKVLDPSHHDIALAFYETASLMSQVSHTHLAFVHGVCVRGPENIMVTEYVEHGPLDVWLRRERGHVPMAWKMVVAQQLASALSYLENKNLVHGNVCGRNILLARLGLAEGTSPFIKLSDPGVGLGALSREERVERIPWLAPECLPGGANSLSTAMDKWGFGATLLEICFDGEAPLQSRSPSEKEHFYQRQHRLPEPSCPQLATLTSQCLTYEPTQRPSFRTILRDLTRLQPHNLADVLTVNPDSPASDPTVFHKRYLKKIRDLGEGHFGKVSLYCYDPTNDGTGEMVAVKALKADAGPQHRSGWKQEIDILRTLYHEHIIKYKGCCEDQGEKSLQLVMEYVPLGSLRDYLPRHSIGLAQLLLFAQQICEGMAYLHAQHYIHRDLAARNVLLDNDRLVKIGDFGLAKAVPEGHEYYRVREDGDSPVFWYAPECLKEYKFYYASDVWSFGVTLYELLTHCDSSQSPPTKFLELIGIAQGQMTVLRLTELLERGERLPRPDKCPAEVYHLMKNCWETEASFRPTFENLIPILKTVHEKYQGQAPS
In short: as §1

Sequence of JAK2-JH1JH2 (O60674 532-1132): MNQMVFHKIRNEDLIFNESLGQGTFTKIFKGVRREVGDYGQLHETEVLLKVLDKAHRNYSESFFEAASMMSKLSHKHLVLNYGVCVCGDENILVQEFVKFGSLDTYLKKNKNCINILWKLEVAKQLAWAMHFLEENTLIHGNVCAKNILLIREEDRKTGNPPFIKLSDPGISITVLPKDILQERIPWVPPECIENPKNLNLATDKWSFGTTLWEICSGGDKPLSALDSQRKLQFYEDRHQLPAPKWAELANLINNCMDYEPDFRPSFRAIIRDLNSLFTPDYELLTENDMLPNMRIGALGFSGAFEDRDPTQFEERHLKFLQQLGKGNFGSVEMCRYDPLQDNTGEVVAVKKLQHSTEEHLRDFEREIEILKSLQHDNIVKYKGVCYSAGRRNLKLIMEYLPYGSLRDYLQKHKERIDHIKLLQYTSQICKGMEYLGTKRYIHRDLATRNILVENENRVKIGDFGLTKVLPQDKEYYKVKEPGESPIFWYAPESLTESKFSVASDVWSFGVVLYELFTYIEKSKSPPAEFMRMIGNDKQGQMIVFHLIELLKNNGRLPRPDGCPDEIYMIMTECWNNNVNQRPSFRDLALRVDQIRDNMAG

Row | IC50 (JAK2-JH1JH2) [nM] | IC50 (JAK3-JH1JH2) [nM] | IC50 (JAK1-JH1JH2) [nM] | IC50 (Tyk2-JH1JH2) [nM] | Structure (SMILES)
1 | 5.6 | 51.4 | 0.3 | 5.7 | N#CC[C@H]1CC[C@H](n2c(CC(=O)Nc3cn[nH]c3)nc3cnc4[nH]ccc4c32)CC1 [Ex. 64, 2-(1-((1r,4r)-4-(Cyanomethyl)cyclohexyl)-1,6-dihydroimidazo[4,5-d]pyrrolo[2,3-b]pyridin-2-yl)-N-(1H-pyrazol-4-yl)acetamide]
2 | 8.2 | 180 | 0.3 | 13.3 | N#CC[C@H]1CC[C@H](n2c(CC(=O)NCc3ccc(CO)cc3)nc3cnc4[nH]ccc4c32)CC1 [Ex. 68, 2-(1-((1r,4r)-4-(Cyanomethyl)cyclohexyl)-1,6-dihydroimidazo[4,5-d]pyrrolo[2,3-b]pyridin-2-yl)-N-(4-(hydroxymethyl)benzyl)acetamide]
3 | 5.2 | 181 | 0.4 | 27.2 | COCC/C(N)=N/OCc1nc2cnc3[nH]ccc3c2n1[C@H]1CC[C@H](CC#N)CC1 [Ex. 72, (Z*)—N-((1-((1r,4r)-4-(Cyanomethyl)cyclohexyl)-1,6-dihydroimidazo[4,5-d]pyrrolo[2,3-b]pyridin-2-yl)methoxy)-3-methoxypropanimidamide]
4 | 3.4 | 62.3 | 0.4 | 9.2 | CC1CC(C)CC(NC(=O)Cc2nc3cnc4[nH]ccc4c3n2[C@H]2CC[C@H](CC#N)CC2)C1 (some centres unmarked) [Ex. 75, 2-(1-((1r,4r)-4-(Cyanomethyl)cyclohexyl)-1,6-dihydroimidazo[4,5-d]pyrrolo[2,3-b]pyridin-2-yl)-N-(3,5-dimethylcyclohexyl)acetamide]
5 | 23.6 | 1210 | 0.4 | 16.8 | N#CC[C@H]1CC[C@H](n2c(C3CCN(c4ccc(C#N)cc4)CC3)nc3cnc4[nH]ccc4c32)CC1 [Ex. 76, 4-(4-(1-((1r,4r)-4-(Cyanomethyl)cyclohexyl)-1,6-dihydroimidazo[4,5-d]pyrrolo[2,3-b]pyridin-2-yl)piperidin-1-yl)benzonitrile]
6 | 13.6 | 189 | 0.4 | 5.2 | N#CC[C@H]1CC[C@H](n2c(CNC(=O)c3ccc(C#N)cc3)nc3cnc4[nH]ccc4c32)CC1 [Ex. 82, 4-Cyano-N-((1-((1r,4r)-4-(cyanomethyl)cyclohexyl)-1,6-dihydroimidazo[4,5-d]pyrrolo[2,3-b]pyridin-2-yl)methyl)benzamide]
7 | 27.7 | 274 | < 0.4 | 10.3 | N#CC[C@H]1CC[C@H](n2c(CC(=O)N3CCC(Cc4ccccc4)CC3)nc3cnc4[nH]ccc4c32)CC1 [Ex. 87, 2-((1r,4r)-4-(2-(2-(4-Benzylpiperidin-1-yl)-2-oxoethyl)imidazo[4,5-d]pyrrolo[2,3-b]pyridin-1(6H)-yl)cyclohexyl)acetonitrile]

More lines, now with the values behind:

Row | Structure (SMILES) | IC50 (JAK2-JH1JH2) [nM] | IC50 (JAK3-JH1JH2) [nM] | IC50 (JAK1-JH1JH2) [nM] | IC50 (Tyk2-JH1JH2) [nM]
8 | N#CC[C@H]1CC[C@H](n2c(-c3nn[nH]n3)nc3cnc4[nH]ccc4c32)CC1 [Ex. 63, 2-((1r,4r)-4-(2-(2H-Tetrazol-5-yl)imidazo[4,5-d]pyrrolo[2,3-b]pyridin-1(6H)-yl)cyclohexyl)acetonitrile] | 2.2 | 57.3 | 0.3 | 19.1
9 | CC1(C)CCC(NC(=O)Cc2nc3cnc4[nH]ccc4c3n2[C@H]2CC[C@H](CC#N)CC2)CC1 [Ex. 65, 2-(1-((1r,4r)-4-(Cyanomethyl)cyclohexyl)-1,6-dihydroimidazo[4,5-d]pyrrolo[2,3-b]pyridin-2-yl)-N-(4,4-dimethylcyclohexyl)acetamide] | 7 | 81.5 | 0.3 | 11.7
10 | CN1CCC(NC(=O)Cc2nc3cnc4[nH]ccc4c3n2[C@H]2CC[C@H](CC#N)CC2)CC1 [Ex. 66, 2-(1-((1r,4r)-4-(Cyanomethyl)cyclohexyl)-1,6-dihydroimidazo[4,5-d]pyrrolo[2,3-b]pyridin-2-yl)-N-(1-methylpiperidin-4-yl)acetamide] | 2.5 | 18.9 | 0.3 | 2.8
11 | N#CC[C@H]1CC[C@H](n2c(CC(=O)N3CCS(=O)(=O)CC3)nc3cnc4[nH]ccc4c32)CC1 [Ex. 67, 2-((1r,4r)-4-(2-(2-(1,1-Dioxidothiomorpholino)-2-oxoethyl)imidazo[4,5-d]pyrrolo[2,3-b]pyridin-1(6H)-yl)cyclohexyl)acetonitrile] | 12.3 | 121 | 0.3 | 3.8
12 | COC(C)(C)CNC(=O)Cc1nc2cnc3[nH]ccc3c2n1[C@H]1CC[C@H](CC#N)CC1 [Ex. 71, 2-(1-((1r,4r)-4-(Cyanomethyl)cyclohexyl)-1,6-dihydroimidazo[4,5-d]pyrrolo[2,3-b]pyridin-2-yl)-N-(2-methoxy-2-methylpropyl)acetamide] | 3.4 | 54.2 | 0.2 | 3.3
13 | N#CC[C@H]1CC[C@H](n2c(CC(=O)N3CCC(CO)CC3)nc3cnc4[nH]ccc4c32)CC1 [Ex. 73, 2-((1r,4r)-4-(2-(2-(4-(Hydroxymethyl)piperidin-1-yl)-2-oxoethyl)imidazo[4,5-d]pyrrolo[2,3-b]pyridin-1(6H)-yl)cyclohexyl)acetonitrile] | 19.9 | 199 | 0.4 | 6.3
14 | N#CC[C@H]1CC[C@H](n2c(CNS(=O)(=O)c3ccccc3)nc3cnc4[nH]ccc4c32)CC1 [Ex. 77, N-((1-((1r,4r)-4-(Cyanomethyl)cyclohexyl)-1,6-dihydroimidazo[4,5-d]pyrrolo[2,3-b]pyridin-2-yl)methyl)benzenesulfonamide] | 39.4 | 1910 | 0.4 | 22.3
15 | N#CC[C@H]1CC[C@H](n2c(CC(=O)NC3CC4CCC3C4)nc3cnc4[nH]ccc4c32)CC1 (stereo partly drawn) [Ex. 78, N-((1S,4R)-Bicyclo[2.2.1]heptan-2-yl)-2-(1-((1r,4r)-4-(cyanomethyl)cyclohexyl)-1,6-dihydroimidazo[4,5-d]pyrrolo[2,3-b]pyridin-2-yl)acetamide] | 11.2 | 69.4 | 0.4 | 13.4
16 | N#CC[C@H]1CC[C@H](n2c(CC(=O)NCc3ccc(OC(F)F)cc3)nc3cnc4[nH]ccc4c32)CC1 [Ex. 79, 2-(1-((1r,4r)-4-(cyanomethyl)cyclohexyl)-1,6-dihydroimidazo[4,5-d]pyrrolo[2,3-b]pyridin-2-yl)-N-(4-(difluoromethoxy)benzyl)acetamide] | 10.6 | 223 | 0.4 | 13.3
17 | N#CC[C@H]1CC[C@H](n2c(C(=O)NCC3(O)COC3)nc3cnc4[nH]ccc4c32)CC1 [Ex. 80, 1-((1r,4r)-4-(Cyanomethyl)cyclohexyl)-N-((3-hydroxyoxetan-3-yl)methyl)-1,6-dihydroimidazo[4,5-d]pyrrolo[2,3-b]pyridine-2-carboxamide] | 2.1 | 89.7 | 0.4 | 4.1
18 | Cc1cc(-c2nc3cnc4[nH]ccc4c3n2[C@H]2CC[C@H](CC#N)CC2)[nH]n1 [Ex. 81, 2-((1r,4r)-4-(2-(3-Methyl-1H-pyrazol-5-yl)imidazo[4,5-d]pyrrolo[2,3-b]pyridin-1(6H)-yl)cyclohexyl)acetonitrile] | 3.7 | 117 | 0.4 | 6
19 | N#CC[C@H]1CC[C@H](n2c(CC(=O)NC3CCSCC3)nc3cnc4[nH]ccc4c32)CC1 [Ex. 83, 2-(1-((1r,4r)-4-(Cyanomethyl)cyclohexyl)-1,6-dihydroimidazo[4,5-d]pyrrolo[2,3-b]pyridin-2-yl)-N-(tetrahydro-2H-thiopyran-4-yl)acetamide] | 4.1 | 30 | 0.4 | 9.4
20 | CN1CCC(NC(=O)c2nc3cnc4[nH]ccc4c3n2[C@H]2CC[C@H](CC#N)CC2)CC1 [Ex. 84, 1-((1r,4r)-4-(Cyanomethyl)cyclohexyl)-N-(1-methylpiperidin-4-yl)-1,6-dihydroimidazo[4,5-d]pyrrolo[2,3-b]pyridine-2-carboxamide] | 27.1 | 1120 | 0.4 | 10.4
21 | CC(=N)NCc1nc2cnc3[nH]ccc3c2n1[C@H]1CC[C@H](CC#N)CC1 [Ex. 86, N-((1-((1r,4r)-4-(Cyanomethyl)cyclohexyl)-1,6-dihydroimidazo[4,5-d]pyrrolo[2,3-b]pyridin-2-yl)methyl)acetimidamide] | 14 | 2270 | 0.4 | 2.6
22 | CNc1nccc(-c2nc3cnc4[nH]ccc4c3n2[C@H]2CC[C@H](CC#N)CC2)n1 [Ex. 89, 2-((1r,4r)-4-(2-(2-(Methylamino)pyrimidin-4-yl)imidazo[4,5-d]pyrrolo[2,3-b]pyridin-1(6H)-yl)cyclohexyl)acetonitrile] | 3.4 | 60.6 | 0.4 | 18
23 | N#CC[C@H]1CC[C@H](n2c(CC(=O)N3CCCCC3)nc3cnc4[nH]ccc4c32)CC1 [Ex. 90, 2-((1r,4r)-4-(2-(2-Oxo-2-(piperidin-1-yl)ethyl)imidazo[4,5-d]pyrrolo[2,3-b]pyridin-1(6H)-yl)cyclohexyl)acetonitrile] | 8.1 | 85 | < 4 | ~2.4
